From PubChem BioAssay AID1329 (NMMLSC, 2008)
Activity calls are given as the source filed them. No rule for the calls is given here.

Molecular target: Induced myeloid leukemia cell differentiation protein Mcl-1 (Homo sapiens) (UniProt Q07820)
Test: Mcl-1/Bim interaction regulators – biochemical, bead-based flow cytometry, multiplexed, human, dose response (AID 1329)
Conditions: Bim peptide-Mcl-1 binding, MCF

Sequence of Induced myeloid leukemia cell differentiation protein Mcl-1 (Homo sapiens) (Q07820 whole entry, looked up): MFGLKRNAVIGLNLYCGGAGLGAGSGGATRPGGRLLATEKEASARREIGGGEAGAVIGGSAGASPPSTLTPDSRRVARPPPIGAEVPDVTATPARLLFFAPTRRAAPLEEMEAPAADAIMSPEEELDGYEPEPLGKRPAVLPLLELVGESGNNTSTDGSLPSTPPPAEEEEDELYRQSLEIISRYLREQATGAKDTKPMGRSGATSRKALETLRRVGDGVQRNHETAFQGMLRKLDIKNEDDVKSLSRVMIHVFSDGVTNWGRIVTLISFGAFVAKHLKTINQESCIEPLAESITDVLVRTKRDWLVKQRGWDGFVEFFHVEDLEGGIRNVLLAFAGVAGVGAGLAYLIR

percent span | SMILES
inactive | Cc1cc(N/C(=N/S(=O)(=O)c2cc(F)ccc2F)c2ccccc2)n(-c2ccccc2)n1
inactive | O=c1c2c(n3nnnc3n1Cc1ccccc1)-c1ccccc1CC21CCCC1
inactive | Cn1c(N)c(C(=O)COC(=O)c2cc(-c3ccco3)nc3ccccc23)c(=O)n(Cc2ccccc2)c1=O
inactive | CCN(CC)c1ccc(NC(=O)c2ccccc2Br)cc1S(=O)(=O)Nc1ccccc1OC
inactive | COc1ccccc1-n1c(-c2ccccc2)c[nH]c1=S
inactive | COc1ccccc1Oc1ccc2c(c1)C(=O)N(c1cccc3ncccc13)C2=O
inactive | O=C(CSc1nnc(-c2ccco2)n1Cc1ccccc1)c1ccccc1
inactive | NCC(c1ccccc1)c1c[nH]c2ccccc12 (centres undefined)
inactive | O=c1c2c(-c3ccccc3)csc2nc2c3ccccc3c(NCCN3CCOCC3)nn12
inactive | COCCNC(=O)CN1CCC(NC(=O)Nc2ccccc2)CC1
inactive | Cc1ccnc(NS(=O)(=O)c2ccc(NC(=O)c3c(-c4ccccc4Cl)noc3C)cc2)n1
inactive | O=C(CSc1nnc(-c2cccs2)n1Cc1ccco1)c1ccc2c(c1)OCO2
inactive | CCOc1ccccc1/C=N/NC(=O)CNC(=O)COc1ccccc1
inactive | CCOC(=O)C1CCN(C(=O)Nc2ccc3nc(-c4ccco4)c(-c4ccco4)nc3c2)CC1
inactive | Cc1nnc(NCc2n[nH]c(=O)c3ccccc23)c2ccccc12
inactive | Cc1cc(/C=C(/C#N)C(=O)Nc2ccc(Cl)cc2)c(C)n1-c1cccnc1
inactive | O=C(Nc1ccccc1)Nc1ccc2ncoc2c1
inactive | O=C(Cc1ccc(-c2ccccc2)cc1)NC1CCCC1
inactive | COc1ccc(N2CC(C(=O)Nc3nnc(SCC(=O)c4ccccc4)s3)CC2=O)cc1 (centres undefined)
inactive | O=C(N/N=C/c1cccnc1)c1cccc(S(=O)(=O)N2CCCC2)c1
inactive | O=C(O)CCN1C(=O)/C(=C\c2ccc(-c3nc4ccccc4s3)o2)SC1=S

percent span | SMILES
inactive | O=C1C(=O)c2ccc(-c3ccccc3)cc2-c2ccccc21
inactive | Cc1ccccc1OCC(=O)N/N=C/c1ccccn1
inactive | c1ccc(-c2nc(N3CCCCC3)nc3ccccc23)cc1
inactive | Cc1cc(NC(=O)CCCC(=O)N(CC(=O)NC2CCCCC2)c2ccccc2)no1
inactive | COc1ccccc1-n1c(SCC(=O)N2CCc3ccccc32)nc2c(c1=O)SCC2
inactive | CCN(CC)c1ccc(NC(=O)COc2ccccc2C#N)cc1S(=O)(=O)Nc1ccccc1OC
inactive | CCN(CC)c1nc(N)nc(N(c2ccccc2)c2ccccc2)n1
inactive | C/C(=N\NC(=O)Cc1cccn1C)c1ccc2ccccc2c1
inactive | Cc1c(N2C(=O)c3ccc4c5c(ccc(c35)C2=O)CC4)c(=O)n(-c2ccccc2)n1C
inactive | O=C(Nc1nnc(SCc2ccccn2)s1)C1CC(=O)N(c2ccccc2)C1 (centres undefined)
inactive | Cc1[nH]c2ccccc2c1C(=O)COC(=O)c1c(-c2c(F)cccc2Cl)noc1C
inactive | O=C(COC(=O)c1ccccn1)NC1CCCCC1
inactive | CC1(C)CC(NC(=O)COc2ccc([N+](=O)[O-])cc2)CC(C)(C)N1
inactive | Cc1cccc(/C=N/N(CCO)C2=NS(=O)(=O)c3ccccc32)c1
inactive | Cc1ccc(C(=O)C(C(=O)/C=C/c2ccccc2)=C2SCCCS2)cc1
inactive | COc1ccc(NC(=O)/C(Cl)=C(/Cl)S(=O)Cc2ccccc2)cn1 (centres undefined)
inactive | CCOc1ccc(C2=Nn3c(nnc3-c3ccco3)SC2)cc1
inactive | CC(C)NS(=O)(=O)c1ccc(OCC(=O)Nc2ccc(F)cc2)cc1
inactive | Cc1cc(NC(=O)CCCC(=O)NCc2ccccc2)no1
inactive | O=C(c1cc(=O)c2ccccc2o1)N1CCN(c2ccccc2F)CC1
inactive | COc1ccc(-c2nnc(SCC(=O)Nc3nc4ccccc4s3)n2C)cc1

percent span | SMILES
inactive | COc1ccccc1NC1=C(NC(C)=O)C(=O)c2ccccc2C1=O
inactive | O=C(/C=C/c1ccc(-c2ccccc2[N+](=O)[O-])o1)c1ccccc1
inactive | CCOC(=O)c1cc2c(=O)n3ccccc3nc2n(Cc2ccco2)c1=NC(=O)c1ccccc1OC
inactive | Cc1ccc(-c2cc(C(=O)OCC(=O)N(C)C3CCS(=O)(=O)C3)c3ccccc3n2)o1 (centres undefined)
inactive | Oc1ccc(NCc2ccccc2OCc2ccccc2)cc1
inactive | COC(=O)c1cccc(-n2c(C)cc(C=O)c2C)c1
inactive | CN(CCCOc1ccccc1Br)Cc1ccccc1
inactive | CCN(CC)c1ccc(Nc2nc(N3CCOCC3)c3ccccc3n2)cc1
inactive | Cn1c(CCNC(=O)C2CCCCC2)nc2cc(NC(=O)c3cccs3)ccc21
inactive | CNc1ccc(Br)cc(C(=O)/C=C/c2cccc(OC)c2)c1=O
inactive | COc1cccc(/C=N/Nc2nn3cnnc3c3ccccc23)c1O
inactive | CCOc1cc(CNc2ccc(N(C)C)cc2)cc(Br)c1OCC(=O)NC(C)(C)C
inactive | Cc1ccc2cc(C)c(Sc3nnnn3-c3ccccc3)nc2c1
inactive | COc1ccc(COC(=O)NNC(=O)c2ccccc2Cl)cc1
inactive | O=C(c1cccc(Br)c1)N1CCN(c2cnn(-c3ccccc3)c(=O)c2Cl)CC1
inactive | COC(=O)c1ccc(/C=N/NC(=O)CC(=O)NCc2cccnc2)cc1
inactive | OCCC1CN(Cc2ccc3ncccc3c2)CCN1Cc1ccccc1 (centres undefined)
inactive | c1ccc(C2=Nc3cccc4cccc(c34)N2)cc1
inactive | O=C(C1=C(Nc2ccccc2)c2ccccc2S(=O)(=O)N1)c1ccccc1
inactive | N#Cc1cc(-c2ccccc2)nn1-c1ccccc1

Further lines, the compound ahead of its results:

SMILES | percent span
c1coc(C2=Nc3cccc4cccc(c34)N2)c1 | inactive
NC(=O)c1c(NC(=O)C2CCCO2)sc2c1CCCCC2 (centres undefined) | inactive
Cc1ccc(-c2ccc(/C=C3\SC(N4CCOCC4)=NC3=O)o2)cc1 | inactive
Cc1ccccc1-n1nc(SCC(=O)O)sc1=S | inactive
Cc1ccc(CNc2ccc3c(c2)OCO3)c(C)c1 | inactive
NC(=O)CSc1nnc(Cn2cnc3ccccc32)o1 | inactive
COc1ccc(C(=S)N2CCCCCC2)cc1 | inactive
C/C(=N\NC(=O)Cn1nc(C)c([N+](=O)[O-])c1C)c1ccc(O)cc1 | inactive
Fc1ccc(Cn2nnnc2C(c2ccc(Cl)cc2)N2CCSCC2)cc1 (centres undefined) | inactive
COCCN=c1scc(-c2cccs2)n1/N=C/c1ccc(O)c(O)c1O | inactive
CSc1n[nH]c2nc3c(c(=O)n12)C1(CCCC1)Cc1ccccc1-3 | inactive
Cc1cc(N2CCN(C)CC2)nc2ccc(NC(=S)N3CCN(c4ccc(F)cc4)CC3)cc12 | inactive
O=C(NCCCN1CCN(CCCNC(=O)c2cc([N+](=O)[O-])ccc2Cl)CC1)c1cc([N+](=O)[O-])ccc1Cl | inactive
Cc1nc(NC(=O)CC(C)C)sc1-c1csc(Nc2ccc(Cl)cc2)n1 | inactive
Cc1nonc1NC(=O)CSc1nnc(-c2ccoc2C)n1C | inactive
COc1cc(/C=C2\S/C(=N/S(=O)(=O)c3ccc(C)cc3)NC2=O)c([N+](=O)[O-])cc1OC | inactive
CCCC1(C(=O)OCC)NC(c2cc(OC)c(OC)c(OC)c2)C2C(=O)N(CC)C(=O)C21 (centres undefined) | inactive
Cc1ccc(-c2cc(-c3ccc(F)cc3)c(C#N)c(N)n2)o1 | inactive
CN1CCc2cccc3c2[C@H]1Cc1ccc(O)c(O)c1-3 | inactive
NC(=O)c1c(NC(=O)C2CCCO2)sc2c1CCCC2 (centres undefined) | inactive
Cc1cc[n+]2cc(-c3cccc([N+](=O)[O-])c3)c(-c3cccc([N+](=O)[O-])c3)cc2c1 | inactive

SMILES | percent span
Cc1cccc(NC(=S)N2CCn3cccc3C2c2cccnc2)c1 (centres undefined) | inactive
O=C(NCCN1CCOCC1)c1cc(Cl)ccc1[N+](=O)[O-] | inactive
CCOc1cc(S(=O)(=O)N2CCCCC2)ccc1F | inactive
Cc1cnnn1-c1ccc(C(=O)CCl)cc1 | inactive
CCOC(=O)c1sc(NC(=O)c2ccncc2)c(C#N)c1C | inactive
COc1ccc(Cl)cc1-n1c(C)cc(C=O)c1C | inactive
CSc1nnc2c3cc(C)ccc3n(Cc3ccccc3)c2n1 | inactive
Cn1c(=O)c2cc(S(=O)(=O)Nc3cc(C(=O)O)cc(C(=O)O)c3)ccc2n(C)c1=O | inactive
COC(=O)c1sc2nc[nH]c(=O)c2c1C | inactive
CC1Cc2ccccc2N1C(=O)c1ccc(N2CCCC2)c([N+](=O)[O-])c1 (centres undefined) | inactive
Cc1ccc(-n2[nH]c(C)c(/C=N/Nc3ccc([N+](=O)[O-])cc3[N+](=O)[O-])c2=O)cc1C | inactive
CCSc1nnc(NC(=O)c2c(-c3ccccc3Cl)noc2C)s1 | inactive
Cc1ccc(NC(=S)N2CCn3cccc3C2c2cccnc2)cc1 (centres undefined) | inactive
COc1ccc2nc(-c3ccco3)c(-c3ccco3)nc2c1 | inactive
CCN1/C(=C/c2ccc3cc(C)cc(C)c3[n+]2CC)Sc2cc(C)ccc21 | inactive
N#Cc1ccc(N=c2ssnc2Cl)cc1 | inactive
O=C(Nc1ccccc1N1CCOCC1)c1cccs1 | inactive
COc1c(C)cc(Br)cc1C(=O)Nc1ccc(S(N)(=O)=O)cc1 | inactive
Cc1cc(N2CCN(C)CC2)nc2ccc(NC(=S)N3CCCCC3)cc12 | inactive
CN(C)/C=C/C(=O)c1ccc(C(F)(F)F)cc1F | inactive
CNC(=O)c1sc(-c2ccccn2)nc1C | inactive
